In patent US20180251431A1 (VERTEX PHARMACEUTICALS INCORPORATED, priority 2016, published 2018):
pIC50: −log10 of the molar value.

These molecules were tested on HEK293 cells (assay: HEK293 VLCFA-LPC IC50 determination (13C-labeled C26:0 LPC by UHPLC/MS)). Conditions: Homo sapiens, HEK293, HEK293 cells; average of one or more replicates; read-out: Average HEK293 IC50.
Assay type: cell-based, human
Description: HEK293 cells were treated with compounds, such as those listed in Tables A-E of Example 1, using the representative manual protocols described below. The protocols below were also adapted to a semi-automated protocol using standard methods in the art.
Cell Culture Growth Conditions:
HEK293 cells were maintained in FreeStyle F17 media (Gibco # A13835) supplemented with PenStrep (1%, Gibco #15070-063), Glutamax (2%, Gibco #35050-061), and Pluronic (0.1%, Gibco #24040-032) (“supplemented media”). Suspension cultures were grown in disposable Erlenmeyer flasks at about 120 rpm, 37° C., 5% CO2, and 80% humidity. Cell densities were kept between about 0.5 and 3 million cells per mL, in about 50-200 mL per flask.
Treatment of Cells with Compounds Provided Herein:
The cells were treated with compounds using either a total of 900 uL cell media volume (high-volume assay) or a total of 200 uL cell media volume (low-volume assay). In the high volume assay, 450 μL of supplemented media plus 13C-acetate (1.0 mg/mL, Sigma Aldrich #282014) were added to 0.5 μL of a compound (such as those in Tables A-E) in DMSO in a polypropylene v-bottom plate (Costar #3363) in 1 of 3 dilution schemes. The contents of each well were mixed and transferred to a sterile polypropylene deep-well v-bottom plate (Costar #3960). 450 μL of cultured HEK293 cells in supplemented media at a density of 1.0 million cells/mL was added to each well. In the low volume assay, 100 μL of supplemented media plus 13C-acetate (1.0 mg/mL, Sigma Aldrich #282014) were added to either 0.1 μL or 1.0 uL of a compound (such as those in Tables A-E) in DMSO in a polypropylene v-bottom plate (Costar #3363) in 1 of 3 dilution schemes. 100 μL of cultured HEK293 cells in supplemented media at a density of 1.0 million cells/mL was added to each well. The high volume and low volume plates were sealed with either AirPore Tape Sheets (Qiagen #19571) or Duetz plate covers to control evaporation and placed into a shaking incubator at 225 rpm, 37° C., 5% CO2, and 80% humidity for 48 hours. For both the high and low volume assays the 3 dilution schemes used were as follows:
Following incubation, treated cells were harvested by centrifugation at 1690×g for 10 minutes. In the high volume assay 200 uL treated cells were transferred to a polypropylene v-bottom plate (Costar #3363) prior to centrifugation. In the low volume assay the incubation plate was centrifuged directly, without a transfer step. The supernatant was then discarded and the analytes were extracted using 1 of 2 different extraction schemes. In the first scheme, the cell pellet was visibly broken up by mixing the cell pellet up and down in 100 μL of hexane/isopropanol (60:40) 20 times. The resulting mixture was transferred to a 0.45 μm Durapore membrane (Millipore #MSH VN4510) atop a polypropylene v-bottom plate (Costar #3363) and filtered by centrifugation at 1690×g for 5 minutes. 120 μL of n-butanol containing 10 nM C13:0 lysophosphatidylcholine was added to the filtrate as an injection control standard, then the entire volume was transferred to a new Durapore membrane/v-bottom plate. In the second scheme, the cell pellet was visibly broken up by mixing the cell pellet up and down in 180 μL of methanol containing 10 nM C13:0 lysophosphatidylcholine 20 times. The resulting mixture was transferred to a 0.45 μm Durapore membrane (Millipore #MSH VN4510) atop a polypropylene v-bottom plate and filtered by centrifugation at 1690×g for 5 minutes. In both schemes, the plates were then sealed with pierceable capmats (Micronic MP53017) and stored at −20 OC until analyzed.
UHPLC/Mass Spectrometry Readout:
The filtered organic extraction was analyzed with a 1290 Agilent Infinity Series UHPLC coupled to an ABI Sciex QTrap 6500 mass spectrometer. […]

| Structure (SMILES) | pIC50 |
| --- | --- |
| Cc1ccccc1CC(=O)Nc1ccn(-c2ccccc2)n1 [Compound 44, 2-(o-tolyl)-N-(1-phenylpyrazol-3-yl)acetamide] | 6.62 |
| COc1ccc(CC(=O)Nc2ccn(-c3ccccc3)n2)cc1 [Compound 45, 2-(4-methoxyphenyl)-N-(1-phenylpyrazol-3-yl)acetamide] | < 5.30 |
| COc1cccc(CC(=O)Nc2ccn(-c3ccccc3)n2)c1 [Compound 46, 2-(3-methoxyphenyl)-N-(1-phenylpyrazol-3-yl)acetamide] | < 5.30 |
| CCOc1ccc(CC(=O)Nc2ccn(-c3ccccc3)n2)cc1 [Compound 47, 2-(4-ethoxyphenyl)-N-(1-phenylpyrazol-3-yl)acetamide] | < 5.30 |
| O=C(Cc1cccc(F)c1)Nc1ccn(-c2ccccc2)n1 [Compound 49, 2-(3-fluorophenyl)-N-(1-phenylpyrazol-3-yl)acetamide] | 5.72 |
| O=C(Cc1cccc(Cl)c1)Nc1ccn(-c2ccccc2)n1 [Compound 50, 2-(3-chlorophenyl)-N-(1-phenylpyrazol-3-yl)acetamide] | < 5.30 |
| O=C(Cc1cccc(C(F)(F)F)c1)Nc1ccn(-c2ccccc2)n1 [Compound 51, N-(1-phenylpyrazol-3-yl)-2-[3-(trifluoromethyl)phenyl]acetamide] | < 5.70 |
| O=C(Cc1ccccc1C(F)(F)F)Nc1ccn(-c2ccccc2)n1 [Compound 52, N-(1-phenylpyrazol-3-yl)-2-[2-(trifluoromethyl)phenyl]acetamide] | 5.96 |
| O=C(Cc1ccc(OC(F)(F)F)cc1)Nc1ccn(-c2ccccc2)n1 [Compound 53, N-(1-phenylpyrazol-3-yl)-2-[4-(trifluoromethoxy)phenyl]acetamide] | < 5.30 |
| O=C(Cc1ccccc1OC(F)(F)F)Nc1ccn(-c2ccccc2)n1 [Compound 54, N-(1-phenylpyrazol-3-yl)-2-[2-(trifluoromethoxy)phenyl]acetamide] | < 5.30 |
| Cc1ccc(C)c(CC(=O)Nc2ccn(-c3ccccc3)n2)c1 [Compound 55, 2-(2,5-dimethylphenyl)-N-(1-phenylpyrazol-3-yl)acetamide] | < 5.30 |
| O=C(Cc1ccc(O)c(F)c1)Nc1ccn(-c2ccccc2)n1 [Compound 56, 2-(3-fluoro-4-hydroxy-phenyl)-N-(1-phenylpyrazol-3-yl)acetamide] | < 5.30 |
| O=C(Cc1ccc(F)c(F)c1)Nc1ccn(-c2ccccc2)n1 [Compound 57, 2-(3,4-difluorophenyl)-N-(1-phenylpyrazol-3-yl)acetamide] | < 5.30 |
| O=C(Cc1cc(F)cc(F)c1)Nc1ccn(-c2ccccc2)n1 [Compound 58, 2-(3,5-difluorophenyl)-N-(1-phenylpyrazol-3-yl)acetamide] | < 5.30 |
| O=C(Cc1cc(F)ccc1F)Nc1ccn(-c2ccccc2)n1 [Compound 59, 2-(2,5-difluorophenyl)-N-(1-phenylpyrazol-3-yl)acetamide] | 6.60 |
| O=C(Cc1cccc(F)c1F)Nc1ccn(-c2ccccc2)n1 [Compound 60, 2-(2,3-difluorophenyl)-N-(1-phenylpyrazol-3-yl)acetamide] | < 5.70 |
| O=C(Cc1c(F)cccc1F)Nc1ccn(-c2ccccc2)n1 [Compound 61, 2-(2,6-difluorophenyl)-N-(1-phenylpyrazol-3-yl)acetamide] | 7.19 |
| COc1ccc(CC(=O)Nc2ccn(-c3ccccc3)n2)cc1C [Compound 62, 2-(4-methoxy-3-methyl-phenyl)-N-(1-phenylpyrazol-3-yl)acetamide] | 5.43 |
| COc1ccc(CC(=O)Nc2ccn(-c3ccccc3)n2)cc1F [Compound 63, 2-(3-fluoro-4-methoxy-phenyl)-N-(1-phenylpyrazol-3-yl)acetamide] | < 5.30 |

| Structure (SMILES) | pIC50 |
| --- | --- |
| O=C(Cc1ccc(F)c(Cl)c1)Nc1ccn(-c2ccccc2)n1 [Compound 64, 2-(3-chloro-4-fluoro-phenyl)-N-(1-phenylpyrazol-3-yl)acetamide] | < 5.30 |
| COc1ccc(CC(=O)Nc2ccn(-c3ccccc3)n2)cc1OC [Compound 66, 2-(3,4-dimethoxylphenyl)-N-(1-phenylpyrazol-3-yl)acetamide] | 5.55 |
| O=C(Cc1ccc(Cl)c(Cl)c1)Nc1ccn(-c2ccccc2)n1 [Compound 68, 2-(3,4-dichlorophenyl)-N-(1-phenylpyrazol-3-yl)acetamide] | < 5.30 |
| O=C(Cc1cccc(Cl)c1Cl)Nc1ccn(-c2ccccc2)n1 [Compound 69, 2-(2,3-dichlorophenyl)-N-(1-phenylpyrazol-3-yl)acetamide] | 5.30 |
| O=C(Cc1c(Cl)cccc1Cl)Nc1ccn(-c2ccccc2)n1 [Compound 70, 2-(2,6-dichlorophenyl)-N-(1-phenylpyrazol-3-yl)acetamide] | < 5.70 |
| O=C(Cc1ccc(F)c(C(F)(F)F)c1)Nc1ccn(-c2ccccc2)n1 [Compound 71, 2-[4-fluoro-3-(trifluoromethyl)phenyl]-N-(1-phenylpyrazol-3-yl)acetamide] | < 5.30 |
| O=C(Cc1cc(F)cc(C(F)(F)F)c1)Nc1ccn(-c2ccccc2)n1 [Compound 72, 2-[3-fluoro-5-(trifluoromethyl)phenyl]-N-(1-phenylpyrazol-3-yl)acetamide] | < 5.30 |
| O=C(Cc1cc(C(F)(F)F)cc(C(F)(F)F)c1)Nc1ccn(-c2ccccc2)n1 [Compound 73, 2-[3,5-bis(trifluoromethyl)phenyl]-N-(1-phenylpyrazol-3-yl)acetamide] | < 5.30 |
| O=C(Cc1ccc(F)c(F)c1F)Nc1ccn(-c2ccccc2)n1 [Compound 74, N-(1-phenylpyrazol-3-yl)-2-(2,3,4-trifluorophenyl)acetamide] | < 5.30 |
| O=C(Cc1cc(F)c(F)cc1F)Nc1ccn(-c2ccccc2)n1 [Compound 75, N-(1-phenylpyrazol-3-yl)-2-(2,4,5-trifluorophenyl)acetamide] | < 5.70 |
| O=C(Cc1c(F)cc(F)cc1F)Nc1ccn(-c2ccccc2)n1 [Compound 76, N-(1-phenylpyrazol-3-yl)-2-(2,4,6-trifluorophenyl)acetamide] | 7.14 |
| Cc1ccc(C(C)C(=O)Nc2ccn(-c3ccccc3)n2)cc1 (centres unmarked) [Compound 77, N-(1-phenylpyrazol-3-yl)-2-(p-tolyl)propanamide] | 5.48 |
| CC(C)Cc1ccc(C(C)C(=O)Nc2ccn(-c3ccccc3)n2)cc1 (centres unmarked) [Compound 78, 2-(4-isobutylphenyl)-N-(1-phenylpyrazol-3-yl)propanamide] | < 5.30 |
| O=C(Nc1ccn(-c2ccccc2)n1)C1(c2ccc(Cl)cc2)CCCC1 [Compound 79, 1-(4-chlorophenyl)-N-(1-phenylpyrazol-3-yl)cyclopentanecarboxamide] | < 5.30 |
| CC(C(=O)Nc1ccn(-c2ccccc2)n1)c1ccccc1 (centres unmarked) [Compound 80, 2-phenyl-N-(1-phenylpyrazol-3-yl)propanamide] | 7.33 |
| O=C(Nc1ccn(-c2nccs2)n1)C1(c2ccccc2)CC1 [Compound 81, 1-phenyl-N-(1-thiazol-2-ylpyrazol-3-yl)cyclopropanecarboxamide] | 7.96 |
| O=C(Nc1ccn(-c2ncccc2F)n1)C1(c2ccccc2)CC1 [Compound 82, N-[1-(3-fluoro-2-pyridyl)pyrazol-3-yl]-1-phenyl-cyclopropanecarboxamide] | 6.72 |
| O=C(Cc1ccccc1)Nc1ccn(-c2ccnc(Cl)c2)n1 [Compound 83, N-(1-(2-chloropyridin-4-yl)-1H-pyrazol-3-yl)-2-phenylacetamide] | 6.22 |
| O=C(Nc1ccn(-c2ccnc(Cl)c2)n1)C1(c2ccccc2)CC1 [Compound 84, N-(1-(2-chloropyridin-4-yl)-1H-pyrazol-3-yl)-1-phenylcyclopropane-1-carboxamide] | 7.21 |
